Data reported in PubChem BioAssay (NCI).
Several values for one entry are separate records, joined by “and”; a condition that tells them apart may be missing. Identical values can stand only once.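 Method: 48-hour compound exposure of cells in 96-well plates, five concentrations, linear interpolation of endpoints. At the GI50, growth is halved. TGI marks complete inhibition of growth.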

Assays:
Experiment in all cases: NCI anticancer screen, dose series, 48 h
HL-60(TB) leukemia = system: HL-60(TB) leukemia
MALME-3M melanoma = system: MALME-3M melanoma
UO-31 renal = system: UO-31 renal
OVCAR-4 ovarian = system: OVCAR-4 ovarian
OVCAR-8 ovarian = system: OVCAR-8 ovarian
HCT-15 colon = system: HCT-15 colon
MDA-MB-435 = system: MDA-MB-435
T-47D breast = system: T-47D breast
A498 renal = system: A498 renal
SNB-19 CNS = system: SNB-19 CNS

| SMILES | GI50 (HL-60(TB) leukemia) | TGI (HL-60(TB) leukemia) | GI50 (MALME-3M melanoma) | TGI (MALME-3M melanoma) | GI50 (UO-31 renal) | TGI (UO-31 renal) | GI50 (OVCAR-4 ovarian) | TGI (OVCAR-4 ovarian) | GI50 (OVCAR-8 ovarian) | TGI (OVCAR-8 ovarian) | GI50 (HCT-15 colon) | TGI (HCT-15 colon) | GI50 (MDA-MB-435) | TGI (MDA-MB-435) | GI50 (T-47D breast) | TGI (T-47D breast) | TGI (A498 renal) | GI50 (SNB-19 CNS) | TGI (SNB-19 CNS) | GI50 (A498 renal) |
| --- | --- | --- | --- | --- | --- | --- | --- | --- | --- | --- | --- | --- | --- | --- | --- | --- | --- | --- | --- | --- |
| CN(C)c1ccc(C(=N)c2ccc(N(C)C)cc2)cc1 | 3.3 µM | 14.8 µM | 3.04 µM and 9.7 µM | 28.8 µM and 62.2 µM | 3.65 µM and 5.86 µM | 32 µM and > 100 µM | 5.86 µM and 3.71 µM | > 100 µM | 3.79 µM and 3.55 µM | 19.1 µM and 28.1 µM | 2.56 µM and 2.6 µM | > 100 µM | 0.375 µM and 0.382 µM | 3.19 µM and 9.02 µM | 5.51 µM and 3.42 µM | 44.8 µM and 29.2 µM | 7.45 µM and 4.58 µM | 4.38 µM and 16 µM | > 100 µM | – |
| O=C1NC(=O)[C@@]2(CC[C@@H](O)C2)c2ccncc21 | – | > 100 µM | – | > 100 µM | – | > 100 µM | – | > 100 µM | – | > 100 µM | – | > 100 µM | – | > 100 µM | – | > 100 µM | > 100 µM | – | > 100 µM | – |
| CN(C)C[C@H]1CCn2c(c(C3=C(c4cn(C)c5ccccc45)C(=O)NC3=O)c3ccccc32)C1 | 5.65 µM | 11.3 µM | 4.24 µM | 8.56 µM | 3.45 µM | 7.31 µM | 3.97 µM | 12.5 µM | 5.6 µM | 13.2 µM | 4.51 µM | 14.8 µM | 3.95 µM | 7.9 µM | 5.43 µM | 11.2 µM | 9.08 µM | 5.65 µM | 16.6 µM | 3.84 µM |
| Nc1ncn(C2OC(COP(=O)(O)O)C(O)C2O)c(=O)n1 (stereo unspecified) | – | > 100 µM | – | > 100 µM | – | > 100 µM | – | > 100 µM | – | > 68.9 µM | – | > 100 µM | – | > 73.6 µM | – | > 100 µM | > 100 µM | – | > 100 µM | – |
| Cc1cc(C(=O)Nc2cc(Oc3ccc4nc(NC(=O)C5CC5)cn4n3)ccc2C)n(C)n1 | 9.56 µM | > 10 µM | > 10 µM | > 10 µM | > 10 µM | > 10 µM | > 10 µM | > 10 µM | > 10 µM | > 10 µM | 6.49 µM | > 10 µM | 3.22 µM | > 10 µM | > 10 µM | > 10 µM | > 10 µM | > 10 µM | > 10 µM | > 10 µM |
| COC12C=C/C(=C(/C(=O)OCCSc3ccnn3C)C(=O)CCCCCCCCC3(OC)C=C/C(=C(/C(=O)OCCSc4ccnn4C)C(=O)CCCCCCCC1)O3)O2 | 0.929 µM | 2.63 µM | 0.776 µM | 2.32 µM | 0.942 µM | 11.1 µM | 0.837 µM | 2.5 µM | 1 µM | 6.79 µM | 1.08 µM | 4.39 µM | 0.685 µM | 1.57 µM | 1.26 µM | > 32.5 µM | 2.2 µM | 1.88 µM | > 32.5 µM | 0.645 µM |
| CC(CN(C)C)S(=O)(=O)c1ccc(-c2cnc(N)c(C(=O)Nc3ccccc3)n2)cc1 (stereo unspecified) | 3.05 µM | 11 µM | 8.16 µM | 26.6 µM | 4.78 µM | 28.7 µM | 6.95 µM | 54.2 µM | 10.3 µM | > 89.8 µM | 2.91 µM | 13.4 µM | 4.51 µM | 23.8 µM | 13.1 µM | 59.3 µM | 9.02 µM | 16.3 µM | 75.1 µM | 2.41 µM |
| Clc1ccccc1[C@@H]1C[C@@H]2Cc3cc(Br)c4ccccc4c3N1O2 | 4.4 µM | > 100 µM | 4.83 µM | > 100 µM | 6.05 µM | > 100 µM | – | – | 5.45 µM | > 100 µM | 4.39 µM | > 100 µM | 2.08 µM | 20.4 µM | 4.26 µM | > 100 µM | 60.2 µM | 8.11 µM | > 100 µM | 3.79 µM |
| C=C1C(=O)O[C@H]2[C@H]1CC/C(COC(=O)c1cn(C)c3ccccc13)=C\CC[C@@]1(C)O[C@@H]21 | 1.54 µM | 4.17 µM | 1.62 µM | 3.34 µM | 0.775 µM | 2.1 µM | 1.14 µM | 3.04 µM | 0.8 µM | 2.4 µM | 0.539 µM | 2.26 µM | 1.34 µM | 3.34 µM | 1.19 µM | 3.42 µM | 3.05 µM | 1.59 µM | 3.64 µM | 1.59 µM |
| CCN(CC)CCC(=O)OC1C(C)=CC(C)C(=O)CC(C(C)CC2CCC(O)C(OC)C2)OC(=O)C2CCCCN2C(=O)C(=O)[C@@]2(O)OC(CCC2C)CC(OC)\C(C)=C/C=C/C=C/C(C)CC(C)C(=O)C1OC (stereo partly specified) | – | 16 µM | – | 18.8 µM | – | – | – | 2.27 µM | – | 22.5 µM | – | 20.6 µM | – | 21.2 µM | – | 14.6 µM | 17.6 µM | – | 21.6 µM | – |
